# Tests used:
# MDA-MB-231 cells = experiment: label-free SERS mapping with PLS-DA of living cells treated with PTX dosages; assay type: cell-based, human; conditions: 1.5 nM PTX, MDA-MB-231, PLS-DA after ERS calibration
# HCC-1806 cells = experiment: as above; assay type: cell-based, human; conditions: 1.5 nM, 5 nM and 15 nM PTX, HCC-1806, after ERS calibration
# HCC-1806 = HCC-1806 triple-negative breast cancer cells; read-out: half-maximal inhibition concentration (IC50); cited from earlier work
compound,measurement,setting,value
"CC(=O)O[C@H]1C(=O)[C@@]2(C)[C@H]([C@H](OC(=O)c3ccccc3)[C@]3(O)C[C@H](OC(=O)[C@H](O)[C@@H](NC(=O)c4ccccc4)c4ccccc4)C(C)=C1C3(C)C)[C@]1(OC(C)=O)CO[C@@H]1C[C@@H]2O [PTX, paclitaxel]",changes of SERS-measured molecular profiles versus control group (0 nM),MDA-MB-231 cells,not enough to elicit significant changes
same,separation of PLS-DA scatters of control group (0 nM) from PTX treated groups,HCC-1806 cells,completely separate
same,IC50,HCC-1806,1.5 nM

# Reference: patent publication US20240142382A1, “METHODS AND COMPOSITIONS FOR CALIBRATED LABEL-FREE SURFACE-ENHANCED RAMAN SPECTROSCOPY” (Virginia Tech Intellectual Properties, Inc., priority 2021, published 2024)
